Experimental data published in US4220644A, “7-Acylamino-3-(substituted tetrazolyl thiomethyl) cephalosporins” (SmithKline Corporation, priority 1976, dated 1980).
Converted amounts (≈) assume the structure as drawn. Like-named read-outs stand apart in the source and are kept apart here.

How the values were obtained:
[1] = test system: Shigella HH 117; test: MIC in vitro (Table 1), Shigella HH 117; format: cell-based
From the text: (§1) The compounds of Formula I have antibacterial activity against both Gram-positive and Gram-negative organisms. […] Compound names corresponding to numbers are given in the experimental section. For comparative purposes, data for cephamandole, which is 7-mandelamido-3-(1-methyltetrazol-5-ylthiomethyl)-3-cephem-4-carboxylic acid, is also given in Tables 1 and 2.

[2] = test system: Kleb. pneumo. SK 1200; test: MIC in vitro (Table 1), Kleb. pneumo. SK 1200; format: cell-based
From the text: (§2) Compound names corresponding to numbers are given in the experimental section. For comparative purposes, data for cephamandole, which is 7-mandelamido-3-(1-methyltetrazol-5-ylthiomethyl)-3-cephem-4-carboxylic acid, is also given in Tables 1 and 2.

[3] = test system: S. aureus SK 23390; test: MIC in vitro (Table 1), S. aureus SK 23390; format: cell-based; details: Staphylococcus aureus
From the text: as §2

[4] = test system: E. coli HH 33779; test: MIC in vitro (Table 1), E. coli HH 33779; format: cell-based
From the text: as §2

[5] = test system: Strep. Faecalis HH 34358; test: MIC in vitro (Table 1), Strep. Faecalis HH 34358; format: cell-based; details: in vitro, Strep. Faecalis HH 34358
From the text: as §2

[6] = test system: Serra. Marc. ATCC 13880; test: MIC in vitro (Table 1), Serra. Marc. ATCC 13880; format: cell-based
From the text: as §2

[7] = test system: Proteus morgani 179; test: MIC in vitro (Table 1), Proteus morgani 179; format: cell-based
From the text: as §2

[8] = test system: Entero. aerog. ATCC 13048; test: MIC in vitro (Table 1), Entero. aerog. ATCC 13048; format: cell-based
From the text: as §2

[9] = test system: Kleb. pneumo. SK 4200; test: MIC in vitro (Table 1), Kleb. pneumo. SK 4200; format: cell-based
From the text: as §2

[10] = test system: E. coli 12140; test: In vivo mouse protection (Table 2), E. coli 12140
From the text: as §2

[11] = test system: E. coli SK 12140; test: MIC in vitro (Table 1), E. coli SK 12140; format: cell-based; details: Escherichia coli, SK12140, in vitro
From the text: as §2

[12] = test system: Entero. cloacae HH 31254; test: MIC in vitro (Table 1), Entero. cloacae HH 31254; format: cell-based; details: Enterobacter cloacae
From the text: as §2

[13] = test system: Pseudo. sp. HH 63; test: MIC in vitro (Table 1), Pseudo. sp. HH 63; format: cell-based; details: in vitro, Pseudo. sp. HH 63; read-out: MIC
From the text: as §1

[14] = test system: Kleb. pneumo. 4200; test: In vivo mouse protection (Table 2), Kleb. pneumo. 4200
From the text: as §2

[15] = test system: S. aureus HH 127; test: MIC in vitro (Table 1), S. aureus HH 127; format: cell-based; details: Staphylococcus aureus
From the text: as §2

[16] = test system: Salmonella ATCC 12176; test: MIC in vitro (Table 1), Salmonella ATCC 12176; format: cell-based
From the text: as §1

[17] = Shigella, HH117, in vitro, read-out: MIC
[18] = SK23390, in vitro, S. aureus SK 23390, read-out: MIC
[19] = Escherichia coli, HH33779, in vitro, E. coli HH 33779, read-out: MIC
[20] = Enterococcus faecalis, read-out: MIC
[21] = in vitro, Serra. Marc. ATCC 13880, read-out: MIC
[22] = in vitro, Entero. aerog. ATCC 13048, read-out: MIC
[23] = in vitro, Kleb. pneumo. SK 4200, read-out: MIC
[24] = Escherichia coli, 12140, po, E. coli 12140, p.o.
[25] = Escherichia coli, 12140, sc, E. coli 12140, s.c.
[26] = HH31254, in vitro, Entero. cloacae HH 31254, read-out: MIC
[27] = Salmonella, ATCC12176, in vitro, read-out: MIC
[28] = HH127, in vitro, S. aureus HH 127, read-out: MIC

| Structure (SMILES) | MIC [1, 17] [µg/mL] | MIC [2] [µg/mL] | MIC ([2]; read-out: MIC) [µg/mL] | MIC [3, 18] [µg/mL] | MIC [4, 19] [µg/mL] | MIC [5, 20] [µg/mL] | MIC [6] [µg/mL] | MIC [6, 21] [µg/mL] | MIC [8, 22] [µg/mL] | MIC [9, 23] [µg/mL] | ED50 [10, 24] [mg/kg] | ED50 [10, 25] [mg/kg] | MIC [11] [µg/mL] | MIC [12, 26] [µg/mL] | MIC [13] [µg/mL] | ED50 ([14]; po, Kleb. pneumo. 4200, p.o.) [mg/kg] | MIC [16, 27] [µg/mL] | MIC ([7]; read-out: MIC) [µg/mL] | MIC ([11]; read-out: MIC) [µg/mL] | MIC [15, 28] [µg/mL] | further results |
| --- | --- | --- | --- | --- | --- | --- | --- | --- | --- | --- | --- | --- | --- | --- | --- | --- | --- | --- | --- | --- | --- |
| O=C(O)Cn1nnnc1SCC1=C(C(=O)O)N2C(=O)C(NC(=O)[C@H](O)c3ccccc3)[C@H]2SC1 (stereo partly drawn) [I, 7-D-Mandelamido-3-(1-carboxymethyltetrazol-5-ylthiomethyl)-3-cephem-4-carboxylic acid] | 1.6 (≈ 3.16 µM) | 1.6 (≈ 3.16 µM) | 0.8 (≈ 1.58 µM) | 3.1 (≈ 6.12 µM) | 6.3 (≈ 12.4 µM) | 100 (≈ 197 µM) | 25 (≈ 49.4 µM) | 100 (≈ 197 µM) | 6.3 (≈ 12.4 µM) | 0.8 (≈ 1.58 µM) | 50 | 1.56 | 1.6 (≈ 3.16 µM) | 0.8 (≈ 1.58 µM) | > 200 | 25 | 1.6 (≈ 3.16 µM) |  |  |  | MIC ([1]; in vitro): 0.8 µg/mL (≈ 1.58 µM); MIC ([3]; SK23390): 1.6 µg/mL (≈ 3.16 µM); MIC ([4]; Escherichia coli, HH33779): 1.6 µg/mL (≈ 3.16 µM); MIC [7]: 3.1 µg/mL (≈ 6.12 µM); MIC [8]: 12.5 µg/mL (≈ 24.7 µM); MIC [9]: 1.6 µg/mL (≈ 3.16 µM); MIC ([15]; HH127): 6.3 µg/mL (≈ 12.4 µM); MIC ([16]; in vitro): 0.8 µg/mL (≈ 1.58 µM) |
| N[C@@H](C(=O)NC1C(=O)N2C(C(=O)O)=C(CSc3nnnn3CC(=O)O)CS[C@H]12)c1ccc(O)cc1 (stereo partly drawn) [II, 7-(D-α-Amino-4-hydroxyphenylacetamido)-3-(1-carboxymethyl-tetrazol-5-ylthiomethyl)-3-cephem-4-carboxylic acid] | 6.3 (≈ 12.1 µM) | 6.3 (≈ 12.1 µM) |  | 12.5 (≈ 24 µM) | 12.5 (≈ 24 µM) | 100 (≈ 192 µM) |  | > 200 | 25 (≈ 47.9 µM) | 1.6 (≈ 3.07 µM) |  |  |  | 1.6 (≈ 3.07 µM) | > 200 | 13.2 | 1.6 (≈ 3.07 µM) | > 200 | 3.1 (≈ 5.94 µM) | 12.5 (≈ 24 µM) |  |
| NC(=O)Cn1nnnc1SCC1=C(C(=O)O)N2C(=O)C(NC(=O)[C@H](N)c3ccc(O)cc3)[C@H]2SC1 (stereo partly drawn) [VI, 7-(D-α-Amino-4-hydroxyphenylacetamido) -3-(1-carbamoylmethyltetrazol-5-ylthiomethyl) -3-cephem-4-carboxylic acid] | 3.1 (≈ 5.96 µM) |  | 6.3 (≈ 12.1 µM) | 6.3 (≈ 12.1 µM) | 6.3 (≈ 12.1 µM) | 50 (≈ 96.1 µM) |  | 100 (≈ 192 µM) | 6.3 (≈ 12.1 µM) | 12.5 (≈ 24 µM) |  |  |  |  | > 200 | 4 | 1.6 (≈ 3.07 µM) | 50 (≈ 96.1 µM) | 6.3 (≈ 12.1 µM) | 6.3 (≈ 12.1 µM) | MIC ([12]; HH31254): 3.1 µg/mL (≈ 5.96 µM); ED50 ([14]; sc, Kleb. pneumo. 4200, s.c.): 0.92 mg/kg |
| NC(=O)CCn1nnnc1SCC1=C(C(=O)O)N2C(=O)C(NC(=O)[C@H](O)c3ccccc3)[C@H]2SC1 (stereo partly drawn) [VII, 7-D-Mandelamido-3-[1-(2-carbamoylethyl)tetrazol-5-ylthiomethyl]-3-cephem-4-carboxylic acid] | 0.2 (≈ 0.385 µM) |  | 0.8 (≈ 1.54 µM) | 0.8 (≈ 1.54 µM) | 1.6 (≈ 3.08 µM) | 12.5 (≈ 24.1 µM) | 6.3 (≈ 12.1 µM) | 50 (≈ 96.2 µM) |  | 0.8 (≈ 1.54 µM) | 25 | 0.86 | 0.4 (≈ 0.77 µM) | 1.6 (≈ 3.08 µM) | > 200 | 17 | 0.2 (≈ 0.385 µM) | 1.6 (≈ 3.08 µM) | 0.8 (≈ 1.54 µM) |  | MIC ([1]; in vitro): 0.4 µg/mL (≈ 0.77 µM); MIC ([3]; SK23390): 0.4 µg/mL (≈ 0.77 µM); MIC ([4]; in vitro, E. coli HH 33779): 3.1 µg/mL (≈ 5.97 µM); MIC [5]: 25 µg/mL (≈ 48.1 µM); MIC [7]: 0.8 µg/mL (≈ 1.54 µM); MIC [9]: 0.4 µg/mL (≈ 0.77 µM); MIC ([12]; HH31254): 0.4 µg/mL (≈ 0.77 µM); ED50 ([14]; sc, Kleb. pneumo. 4200, s.c.): 0.78 mg/kg |
| O=C(O)CCn1nnnc1SCC1=C(C(=O)O)N2C(=O)C(NC(=O)[C@H](O)c3ccccc3)[C@H]2SC1 (stereo partly drawn) [VIII, 7-D-Mandelamido-3-[1-(2-carboxyethyl)tetrazol-5-ylthiomethyl]-3-cephem-4-carboxylic acid] | 0.8 (≈ 1.54 µM) | 0.8 (≈ 1.54 µM) | 1.6 (≈ 3.07 µM) |  |  | 50 (≈ 96.1 µM) | 12.5 (≈ 24 µM) | 50 (≈ 96.1 µM) |  | 0.8 (≈ 1.54 µM) | 50 | 0.86 | 0.4 (≈ 0.768 µM) |  | > 200 | 25 | 0.8 (≈ 1.54 µM) | 6.3 (≈ 12.1 µM) | 1.6 (≈ 3.07 µM) | 1.6 (≈ 3.07 µM) | MIC [5]: 100 µg/mL (≈ 192 µM); MIC ([6]; in vitro, Serra. Marc. ATCC 13880): 100 µg/mL (≈ 192 µM); MIC [8]: 3.1 µg/mL (≈ 5.96 µM); MIC ([9]; in vitro, Kleb. pneumo. SK 4200): 1.6 µg/mL (≈ 3.07 µM); MIC ([12]; HH31254): 3.1 µg/mL (≈ 5.96 µM); ED50 ([14]; sc, Kleb. pneumo. 4200, s.c.): 0.46 mg/kg; MIC ([15]; HH127): 3.1 µg/mL (≈ 5.96 µM); MIC ([16]; in vitro): 0.4 µg/mL (≈ 0.768 µM) |
